Drawing on the NIST ThermoML archive (doi:10.1016/j.jct.2012.03.025), this text covers mass density for seven compounds.

Series [1] is described as follows: mn = molality of the nth substance listed, in mol/kg. Conditions: 308.15 K; 101 kPa; Liquid; Vibrating tube method; m2 = 0.
The conditions of series [2]: 308.15 K; 101 kPa; Liquid; Vibrating tube method.

Each structure is given as a SMILES string. Numbers after ± are expanded uncertainties.

Consider `O` [water] + CCCCn1cc[n+](C)c1.[I-], for which the mass density in series [1] stood at 994.058 ± 0.092 kg/m3.
Regarding `O` [water] + CCCCn1cc[n+](C)c1.O=S(=O)([O-])C(F)(F)F, the mass density in series [1] turned out to be 994.058 ± 0.079 kg/m3.
On the same count and under the same terms, under `O` [water] + CCCCn1cc[n+](C)c1.F[B-](F)(F)F stands 994.058 ± 0.055 kg/m3.
With `O` [water], in series [2], the mass density worked out at 994.058 ± 0.044 kg/m3.
As to `O` [water] + CCCCn1cc[n+](C)c1.[Cl-], the mass density in series [1] is on record as 994.058 ± 0.044 kg/m3.
Same read-out and setting: under `O` [water] + CCCCn1cc[n+](C)c1.[Br-] stands 994.058 ± 0.064 kg/m3.
On the same count and under the same terms, under `O` [water] + CC(=O)[O-].CCCCn1cc[n+](C)c1 stands 994.058 ± 0.11 kg/m3.
